Results published in ChEMBL document CHEMBL1201862, “PubChem BioAssay data set” (2004).
Where “and” joins values, the source holds several entries; their conditions need not be identical. Identical values can stand only once.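 Where inhibition never reached the appropriate level, the endpoint shown equals the highest concentration tested. Otherwise, values were interpolated linearly from a five-concentration, 48-hour dose response in 96-well plates. Abbreviation: GI50, concentration required for 50% inhibition of growth.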 Calls of active or inactive are those of the source. No stated cut-off is given here; in the data, active = GI50 up to about 1.1 µM and inactive = higher.

How the values were obtained:
Test in all cases: NCI-60 cell line screen, 48 h
OVCAR-3 = test system: OVCAR-3
SK-MEL-5 = test system: SK-MEL-5
U-251 = test system: U-251
SNB-19 = test system: SNB-19
SF-268 = test system: SF-268
KM12 = test system: KM12
OVCAR-4 = test system: OVCAR-4
NCI-H23 = test system: NCI-H23
CCRF-CEM = test system: CCRF-CEM
SK-MEL-28 = test system: SK-MEL-28
HCC 2998 = test system: HCC 2998
TK-10 = test system: TK-10
OVCAR-8 = test system: OVCAR-8
CAKI-1 = test system: CAKI-1
HL-60 = test system: HL-60
MOLT-4 = test system: MOLT-4
HCT-116 = test system: HCT-116

Structure (SMILES) | GI50 (OVCAR-3) | GI50 (SK-MEL-5) | GI50 (U-251) | GI50 (SNB-19) | GI50 (SF-268) | GI50 (KM12) | GI50 (OVCAR-4) | GI50 (NCI-H23) | GI50 (CCRF-CEM) | GI50 (SK-MEL-28) | GI50 (HCC 2998) | GI50 (TK-10) | GI50 (OVCAR-8) | GI50 (CAKI-1) | GI50 (HL-60) | GI50 (MOLT-4) | GI50 (HCT-116)
CSC1CC2C(CC1(C)SC)C2(C)C (stereo not drawn) | 37.9 µM (inactive) | 24.4 µM (inactive) | 32.1 µM (inactive) | 46.9 µM (inactive) | > 100 µM (inactive) | 48.2 µM (inactive) | 62.8 µM (inactive) | 61.7 µM (inactive) | 28.2 µM (inactive) | > 100 µM (inactive) | 87.1 µM (inactive) | > 100 µM (inactive) | 39.5 µM (inactive) | > 100 µM (inactive) | 20.2 µM (inactive) | 22.6 µM (inactive) | –
CC1C(c2ccccc2)=CCON1c1ccccc1 (stereo not drawn) | > 100 µM (inactive) | > 100 µM (inactive) | > 100 µM (inactive) | > 100 µM (inactive) | > 100 µM (inactive) | > 100 µM (inactive) | > 100 µM (inactive) | > 100 µM (inactive) | > 100 µM (inactive) | > 100 µM (inactive) | > 100 µM (inactive) | – | > 100 µM (inactive) | > 100 µM (inactive) | > 100 µM (inactive) | > 100 µM (inactive) | > 100 µM (inactive)
CC(=O)O[C@H]1CCC2[C@@H]3CCC4=C(O)c5nocc5C[C@]4(C)C3CC[C@@]21C (stereo partly drawn) | > 100 µM (inactive) | > 100 µM (inactive) | > 100 µM (inactive) | > 100 µM (inactive) | > 100 µM (inactive) | > 100 µM (inactive) | > 100 µM (inactive) | > 100 µM (inactive) | > 100 µM (inactive) | > 100 µM (inactive) | – | > 100 µM (inactive) | > 100 µM (inactive) | > 100 µM (inactive) | – | > 100 µM (inactive) | > 100 µM (inactive)
CCCC(=O)c1c(NOC2OC(COC(C)=O)C(OC(C)=O)C(OC(C)=O)C2OC(C)=O)nc(OC)n(C)c1=O (stereo not drawn) | – | > 100 µM (inactive) | > 100 µM (inactive) | > 100 µM (inactive) | > 100 µM (inactive) | > 100 µM (inactive) | > 100 µM (inactive) | > 100 µM (inactive) | > 100 µM (inactive) | > 100 µM (inactive) | > 100 µM (inactive) | > 100 µM (inactive) | > 100 µM (inactive) | – | – | > 100 µM (inactive) | > 100 µM (inactive)
Cc1ccc(S(=O)(=O)OCC23CCC(C4CC42)C2CC23)cc1 (stereo not drawn) | 38.5 µM (inactive) | 31.6 µM (inactive) | > 100 µM (inactive) | > 100 µM (inactive) | 67.9 µM (inactive) | – | 28.1 µM (inactive) | 48.8 µM (inactive) | 22.8 µM (inactive) | > 100 µM (inactive) | > 100 µM (inactive) | > 100 µM (inactive) | > 100 µM (inactive) | > 100 µM (inactive) | 17.7 µM (inactive) | 50.8 µM (inactive) | 87.7 µM (inactive)
C[C@]12CCC3[C@@H](CC[C@@H]4c5nonc5CC[C@]34C)C1CC[C@@H]2O (stereo partly drawn) | 21.1 µM (inactive) | 18.4 µM (inactive) | 19.9 µM (inactive) | 41.6 µM (inactive) | 29.6 µM (inactive) | 37.8 µM (inactive) | 27.3 µM (inactive) | 32.1 µM (inactive) | 22 µM (inactive) | 21.1 µM (inactive) | 31.8 µM (inactive) | 29.5 µM (inactive) | 35.8 µM (inactive) | 19.8 µM (inactive) | 18.3 µM (inactive) | 23.3 µM (inactive) | –
CCOC(=O)C(C(=O)c1ccccc1-c1ccccc1C(=O)O)=P(c1ccccc1)(c1ccccc1)c1ccccc1 | 25.1 µM (inactive) | 15.5 µM (inactive) | 18.3 µM (inactive) | 25.8 µM (inactive) | 41.6 µM (inactive) | – | 18 µM (inactive) | 20 µM (inactive) | 20.7 µM (inactive) | 18.7 µM (inactive) | 22.3 µM (inactive) | 80.4 µM (inactive) | 16.9 µM (inactive) | – | 19.8 µM (inactive) | 24.2 µM (inactive) | 18.7 µM (inactive)
CCN(CC)CC(C)(C)C(=O)/C=C/c1cccc(/C=C/C(=O)C(C)(C)CN(CC)CC)c1 | 1.11 µM (active) | 1.59 µM (inactive) | 0.219 µM (active) | 1.79 µM (inactive) | 0.429 µM (active) | 0.471 µM (active) | 0.442 µM (active) | 1.3 µM (inactive) | 0.337 µM (active) | 1.42 µM (inactive) | 1.22 µM (inactive) | 1.14 µM (inactive) | 0.333 µM (active) | 0.286 µM (active) | – | 0.27 µM (active) | 0.361 µM (active)
Cc1ccccc1/N=N/c1c(-c2ccccc2)nn(C(=O)CC(=O)Nc2cccc(Cl)c2)c1-c1ccccc1 | 18.5 µM (inactive) | 15.8 µM (inactive) | 13.7 µM (inactive) | 36.4 µM (inactive) | 24 µM (inactive) | – | 22.6 µM (inactive) | 20.1 µM (inactive) | 15.8 µM (inactive) | > 31.5 µM (inactive) | 22.2 µM (inactive) | 0.27 µM (active) | 21.3 µM (inactive) | 31.6 µM (inactive) | 17.3 µM (inactive) | 13 µM (inactive) | 13.4 µM (inactive)
Cc1cc2c(c(C#N)c1C)NC(=O)CCC2=O | > 100 µM (inactive) | – | > 100 µM (inactive) | – | – | > 100 µM (inactive) | > 100 µM (inactive) | > 100 µM (inactive) | > 100 µM (inactive) | > 100 µM (inactive) | > 100 µM (inactive) | – | > 100 µM (inactive) | > 100 µM (inactive) | > 100 µM (inactive) | > 100 µM (inactive) | > 100 µM (inactive)
COc1ccc(-c2cc(-c3ccco3)c(C#N)c(=O)n2C2OC(OC(=O)c3ccccc3)C(OC(=O)c3ccccc3)C2OC(=O)c2ccccc2)cc1 (stereo not drawn) | 58.6 µM (inactive) | > 100 µM (inactive) | 33.1 µM (inactive) | 62.5 µM (inactive) | > 10 µM (inactive) | > 100 µM (inactive) | > 100 µM (inactive) | > 100 µM (inactive) | > 100 µM (inactive) | > 100 µM (inactive) | > 100 µM (inactive) | 13.6 µM (inactive) | > 100 µM (inactive) | > 100 µM (inactive) | – | > 100 µM (inactive) | 40.2 µM (inactive)
C=CC1(C(=O)O)CCC(C(C)(C)C)CC1 (stereo not drawn) | > 100 µM (inactive) | > 100 µM (inactive) | > 100 µM (inactive) | > 100 µM (inactive) | > 100 µM (inactive) | > 100 µM (inactive) | > 100 µM (inactive) | > 100 µM (inactive) | – | – | > 100 µM (inactive) | > 100 µM (inactive) | > 100 µM (inactive) | > 100 µM (inactive) | > 100 µM (inactive) | > 100 µM (inactive) | > 100 µM (inactive)
COc1cc2c(Cc3cc(OCc4ccccc4)ccc3N)nccc2c(OC)c1OC | > 10 µM (inactive) | > 10 µM (inactive) | > 10 µM (inactive) | > 10 µM (inactive) | > 10 µM (inactive) | > 10 µM (inactive) | – | > 10 µM (inactive) | > 10 µM (inactive) | > 10 µM (inactive) | > 10 µM (inactive) | > 10 µM (inactive) | > 10 µM (inactive) | – | > 10 µM (inactive) | > 10 µM (inactive) | > 10 µM (inactive)
COc1ccc(C(=O)O/N=C2/CCCCC2CN(C)C)cc1 (stereo not drawn) | > 100 µM (inactive) | > 100 µM (inactive) | > 100 µM (inactive) | – | > 10 µM (inactive) | > 100 µM (inactive) | > 100 µM (inactive) | > 100 µM (inactive) | > 100 µM (inactive) | > 100 µM (inactive) | > 100 µM (inactive) | > 100 µM (inactive) | > 100 µM (inactive) | > 100 µM (inactive) | > 100 µM (inactive) | > 100 µM (inactive) | > 100 µM (inactive)
N#CC(c1ccccc1)c1nc2ccc(N)cc2[n+]([O-])c1C(C#N)c1ccccc1 (stereo not drawn) | 91.8 µM (inactive) | 1 µM (active) | 59.6 µM (inactive) | > 100 µM (inactive) | > 100 µM (inactive) | 60.7 µM (inactive) | 74 µM (inactive) | 67.8 µM (inactive) | 46.6 µM (inactive) | > 100 µM (inactive) | – | > 100 µM (inactive) | 56.4 µM (inactive) | 69.8 µM (inactive) | 34.9 µM (inactive) | 53.7 µM (inactive) | 54.1 µM (inactive)
C[C@@H]1CC[C@@]2(C)OC(c3ccccc3)[C@H](CO)N2C1=O (stereo partly drawn) | > 100 µM (inactive) | > 100 µM (inactive) | > 100 µM (inactive) | > 100 µM (inactive) | > 100 µM (inactive) | > 100 µM (inactive) | > 100 µM (inactive) | > 100 µM (inactive) | – | > 100 µM (inactive) | – | > 100 µM (inactive) | > 100 µM (inactive) | > 100 µM (inactive) | – | – | > 100 µM (inactive)
O=c1ncccn1[C@@H]1O[C@H](CO)[C@@H](O)[C@@H]1F | > 100 µM (inactive) | > 100 µM (inactive) | > 100 µM (inactive) | > 100 µM (inactive) | > 100 µM (inactive) | – | > 100 µM (inactive) | > 100 µM (inactive) | – | > 64 µM (inactive) | > 100 µM (inactive) | > 100 µM (inactive) and > 69.5 µM (inactive) | > 100 µM (inactive) and > 95.9 µM (inactive) | > 100 µM (inactive) | > 100 µM (inactive) | > 100 µM (inactive) | –
